Patent US20210315992A1, “ADJUVANT EFFECT OF THE TLR1/2 AGONIST DIPROVOCIM SYNERGIZES WITH CHECKPOINT-INHIBITING ANTIBODIES TO ELIMINATE DISEASE” (The Board of Regents of the University of Texas System, priority 2018, published 2021)
Entries after “also recorded” stand apart in the source; their conditions may differ.

What was measured:
human THP-1 cells = assay: TNF production by PMA-differentiated human THP-1 cells (ELISA); assay type: cell-based; conditions: 4 hours
Experimental: (§1) For murine BMDCs, bone morrow cells were cultured in Petri dishes in 10 ml DMEM cell culture medium containing 10 ng/ml of murine GM-CSF (R&D Systems). On day 3 of culture, this was replaced with fresh GM-CSF medium. Loosely adherent cells were transferred to a fresh Petri dish and cultured for an additional 4 d. Human PBMC were purchased from Stemcell Technologies. THP-1 (ATCC) cells were differentiated by treatment with 100 nM PMA (Sigma) in RPMI cell culture medium [RPMI containing 10% vol/vol FBS (Gemini Bio Products), 1% penicillin and streptomycin (Life Technologies)] for 24 hours. After that, cells were washed with PBS and cultured in fresh RPMI cell culture medium for 24 hours before use in studies.
(§2) Cells were seeded onto 96-well plates at 1×10^5 cells per well and stimulated with a Diprovocim (dissolved in DMSO, and final DMSO concentrations (0.2%) were kept constant in all experiments) for 4 h. Mouse TNF, IL-6, or IFN-β, or human TNF in the supernatants were measured by ELISA kits according to the manufacturer's instructions (eBioscience and PBL Assay Science). Pretreatment with 20 μg/ml anti-TLR1, anti-TLR2 or isotype control antibody (eBioscience) was for 1 hour. Unless otherwise indicated, mouse cells were from wild type C57BL/6J mice.

human PBMC = assay: TNF production by human PBMC (ELISA); assay type: cell-based; conditions: 24 hours
Experimental: as §1
[…] Mouse TNF, IL-6, or IFN-β, or human TNF in the supernatants were measured by ELISA kits according to the manufacturer's instructions (eBioscience and PBL Assay Science). Pretreatment with 20 μg/ml anti-TLR1, anti-TLR2 or isotype control antibody (eBioscience) was for 1 hour. Unless otherwise indicated, mouse cells were from wild type C57BL/6J mice.

[1] = test system: mouse peritoneal macrophages; assay: TNF production by mouse peritoneal macrophages (ELISA); assay type: cell-based; conditions: Peritoneal macrophage, 4 hours, read-out: EC50, dose-dependent TNF production
Experimental: Thioglycollate-elicited macrophages were recovered 4 days after i.p. injection of 2 ml BBL thioglycollate medium, brewer modified (4% wt/vol; BD Biosciences) by peritoneal lavage with 5 ml phosphate buffered saline (PBS). The peritoneal macrophages were cultured in DMEM cell culture medium [DMEM containing 10% vol/vol FBS (Gemini Bio Products), 1% vol/vol penicillin and streptomycin (Life Technologies)] at 37° C. and 95% air/5% CO2.
as §2

mouse BMDC = assay: IL-6 production by mouse BMDC (ELISA); assay type: cell-based; conditions: 4 hours
Experimental: as §1, §2

[2] = test system: MAPK and canonical NF-κB signaling; assay: Western blotting of THP-1 cell lysates; assay type: cell-based, human; conditions: THP-1 cells, 5 nM
Experimental: (§3) Mouse peritoneal macrophages or human THP-1 cells (1×10^6 per well) were stimulated in 12-well plates with a Diprovocim at 500 nM for mouse cells or 5 nM for human cells for the indicated times and lysed directly in sample buffer (Sigma). Cell lysates were separated by SDS-PAGE and transferred to nitrocellulose membranes. Membranes were probed with the following antibodies: phospho-IKKα (Ser176)/IKKβ (Ser177), IκBα, phospho-p38 (Thr180/Tyr182), phospho-JNK (Thr183/Tyr185), phospho-ERK1/2 (Thr202/Tyr204) (Cell Signaling Technology) and β-Actin (Sigma).

[3] = test system: MAPK and canonical NF-κB signaling; assay: Western blotting of mouse peritoneal macrophage lysates; assay type: cell-based; conditions: mouse peritoneal macrophages, 500 nM
Experimental: as §3

B16-OVA melanoma [4] = assay: B16-OVA melanoma, post-tumor treatment (immunization day 3 after tumor inoculation); assay type: in vivo, mouse; conditions: post-tumor treatment
Experimental: C57BL/6J mice (n=8 mice per treatment) were injected s.c. with 2×10^5 B16-OVA melanoma cells on day 0. For pre-tumor treatment, mice were immunized i.m. with OVA (100 μg) mixed with vehicle or Diprovocim (10 mg/kg) or alum (2 mg/kg) on the same day prior to tumor injection. Mice received a booster immunization seven days later in which anti-PD-L1 (200 μg) was administered on days 3, 6 and 9 after tumor inoculation by i.p. injection. For post-tumor treatment, initial immunization was on day 3 after tumor inoculation, with a booster seven days later. Anti-PD-L1 (200 μg) was administered on days 3, 6, 9, 12, and 15 after tumor inoculation by i.p. injection. […] P values for tumor volume analysis apply to the final time point as indicated in graphs and were calculated by Student's t test. P values for survival analysis were calculated by Kaplan-Meier analysis. All results are representative of two independent studies.
For post-treatment, 10 mg/kg Diprovocim-1 or 2 mg/kg Alum with OVA (100 μg) was injected i.m. into mice on day 3 after tumor inoculation. Mice received a booster shot seven days after the first immunization. On day 3, 6, 9, 12 and 15 after tumor inoculation, mice were also injected i.p. with 200 μg anti-mPD-L1 in 100 μl saline.
Tumors were measured with a digital caliper (Fisher) and the tumor sizes were calculated using the following formula: volume=0.5×length×width^2. […]

B16-OVA melanoma [5] = assay: Tumor-infiltrating leukocyte analysis in B16-OVA tumors (flow cytometry); assay type: in vivo, mouse
Experimental: A total of 2×10^5 B16-OVA cells in 100 μL PBS were injected s.c. into the flank of each mouse to establish tumors (n=6 mice per treatment). 10 mg/kg Diprovocim-1 or 2 mg/kg alum with OVA (100 μg) was injected i.m. into mice on day 3 after tumor inoculation. Mice received a booster shot seven days after the first immunization. On day 3, 6, 9, and 12 after tumor inoculation, mice were also injected i.p. with 200 μg anti-mPD-L1.
On day 14 after tumor inoculation, tumors were harvested, minced and filtered through a 40-μm strainer to obtain single-cell suspensions. Red blood cells were lysed with RBC lysis buffer (Sigma). After pelleting, cells were stained with a mixture of antibodies for 45 minutes, including anti-mouse CD45.2-PE or CD45.2-APC (BioLegend), anti-mouse CD3-FITC (BD Biosciences), anti-mouse CD4-BV786 (BD Biosciences), anti-mouse CD8-BV510 (BioLegend), anti-mouse CD44-PE-CF594 (BioLegend), APC-conjugated H-2Kb/OVA (SIINFEKL; SEQ ID NO: XX) tetramer (Baylor College of Medicine), anti-mouse F4/80-PE (Tonbo Bioscience), anti-mouse CD11b-BV605 (BioLegend), anti-CD11c-BV711 (BD Biosciences), anti-NK1.1-BV650 (BD Biosciences). Then, the cells were washed twice with PBS. Stained cells were analyzed with an LSRII instrument (BD Biosciences) and the flow cytometry data were analyzed using FlowJo software.

mice = assay: In vivo adjuvant activity and toxicity in mice when co-injected with an immunogen; conditions: compared with LPS administration

Compound: O=C(N[C@H]1C[C@@H]1c1ccccc1)[C@@H]1CN(C(=O)c2ccc(C(=O)N3C[C@@H](C(=O)N[C@H]4C[C@@H]4c4ccccc4)[C@H](C(=O)N[C@H]4C[C@@H]4c4ccccc4)C3)cc2)C[C@H]1C(=O)N[C@H]1C[C@@H]1c1ccccc1 [Diprovocim-1, (3S,3'S,4S,4'S)-1,1′-Terephthaloylbis(N^3,N^4-bis((1S,2R)-2-phenylcyclo-propyl)pyrrolidine-3,4-dicarboxamide)]
- EC50 (human THP-1 cells; Homo sapiens, THP-1 cells, read-out: EC50, dose-dependent TNF production): 0.11 nM
- activation of TNF production compared with Pam3CSK4 (human THP-1 cells; human THP-1 cells): more potent and efficacious; also recorded: more potent than Pam3CSK4
- activation of TNF production compared with Pam3CSK4 (human PBMC): more potent and efficacious; also recorded: more potent than Pam3CSK4
- EC50 (human PBMC; read-out: EC50, dose-dependent TNF production): 0.875 nM
- EC50 [1]: 1.3 nM
- IL-6 production (mouse BMDC): induced IL-6 production
- phosphorylation of signaling proteins and IκBα degradation [2]: induced phosphorylation of IκKα, IKKβ, p38, JNK, and ERK, as well as degradation of IκBα
- phosphorylation of signaling proteins and IκBα degradation [3]: induced phosphorylation of IκKα, IKKβ, p38, JNK, and ERK, as well as degradation of IκBα
- effect on tumor growth, survival rate, and survival time compared with alum (B16-OVA melanoma [4]): superior to that of alum
- frequency of leukocytes (TILs) in tumors compared to vehicle+OVA (B16-OVA melanoma [5]; day 14, immunization day 3 and 10, plus anti-PD-L1): significantly increased
- frequency of NK cells in tumors (B16-OVA melanoma [5]; day 14, vs vehicle+OVA): increased
- frequency of OVA-specific CD8 T cells in tumors (B16-OVA melanoma [5]; day 14, vs vehicle+OVA): increased
- frequency of total and activated (CD44high) CD4 T cells in tumors (B16-OVA melanoma [5]; day 14, vs vehicle+OVA): increased
- frequency of total and activated (CD44high) CD8 T cells in tumors (B16-OVA melanoma [5]; day 14, vs vehicle+OVA): increased
- overt toxicity when used as an adjuvant (mice): did not display the overt toxicity
